Tests used:
Assay type in all cases: functional
[1] = system: MOLT-4; test: Growth inhibition of human MOLT4 cells assessed as cell growth at 10^-6 M incubated for 48 hrs by sulforhodamine B assay relative to control; conditions: MOLT-4, 48 h, read-out: Activity
[2] = system: NCI/ADR-RES; test: Cytotoxicity against human NCI-ADR-RES cells after 48 hrs by SRB assay; conditions: for CC50: read-out: pLC50 (the source's name) (converted)
[3] = system: OVCAR-4; test: Growth inhibition of human OVCAR4 cells assessed as cell growth at 10^-5 M incubated for 48 hrs by sulforhodamine B assay relative to control; conditions: OVCAR-4, 48 h, read-out: Activity
[4] = system: K562; test: Growth inhibition of human K562 cells assessed as cell growth at 10^-6 M incubated for 48 hrs by sulforhodamine B assay relative to control; conditions: K562, 48 h, read-out: Activity
[5] = system: SK-MEL-2; test: Cytotoxicity against human SK-MEL-2 cells after 48 hrs by SRB assay; conditions: SK-MEL-2, 48 h; for CC50: read-out: LC50 (the source's name)
[6] = system: DU-145; test: Growth inhibition of human DU145 cells assessed as cell growth at 10^-8 M incubated for 48 hrs by sulforhodamine B assay relative to control; conditions: DU-145, 48 h, read-out: Activity
[7] = system: SNB-19; test: Growth inhibition of human SNB19 cells assessed as cell growth at 10^-6 M incubated for 48 hrs by sulforhodamine B assay relative to control; conditions: SNB-19, 48 h, read-out: Activity
[8] = system: SK-MEL-28; test: Growth inhibition of human SK-MEL-28 cells assessed as cell growth at 10^-6 M incubated for 48 hrs by sulforhodamine B assay relative to control; conditions: SK-MEL-28, 48 h, read-out: Activity
[9] = system: HCT-116; test: Growth inhibition of human HCT116 cells assessed as cell growth at 10^-7 M incubated for 48 hrs by sulforhodamine B assay relative to control; conditions: HCT-116, 48 h, read-out: Activity
[10] = system: NCI-H226; test: Growth inhibition of human NCI-H226 cells assessed as cell growth at 10^-4 M incubated for 48 hrs by sulforhodamine B assay relative to control; conditions: NCI-H226, 48 h, read-out: Activity
[11] = system: OVCAR-4; test: Growth inhibition of human OVCAR4 cells assessed as cell growth at 10^-4 M incubated for 48 hrs by sulforhodamine B assay relative to control; conditions: OVCAR-4, 48 h, read-out: Activity
[12] = system: SNB-75; test: Cytotoxicity against human SNB75 cells after 48 hrs by SRB assay; conditions: SNB-75, 48 h
[13] = system: SN12C; test: Growth inhibition of human SN12C cells assessed as cell growth at 10^-4 M incubated for 48 hrs by sulforhodamine B assay relative to control; conditions: read-out: Activity
[14] = system: MCF7; test: Growth inhibition of human MCF7 cells assessed as cell growth at 10^-8 M incubated for 48 hrs by sulforhodamine B assay relative to control; conditions: MCF7, 48 h, read-out: Activity
[15] = system: MDA-MB-468; test: Cytotoxicity against human MDA-MB-468 cells after 48 hrs by SRB assay; conditions: MDA-MB-468, 48 h; for CC50: read-out: pLC50 (the source's name) (converted)
[16] = system: OVCAR-4; test: Growth inhibition of human OVCAR4 cells assessed as cell growth at 10^-6 M incubated for 48 hrs by sulforhodamine B assay relative to control; conditions: OVCAR-4, 48 h, read-out: Activity
[17] = system: KM12; test: Growth inhibition of human KM12 cells assessed as cell growth at 10^-8 M incubated for 48 hrs by sulforhodamine B assay relative to control; conditions: KM12, 48 h, read-out: Activity
[18] = system: NCI-H23; test: Growth inhibition of human NCI-H23 cells assessed as cell growth at 10^-6 M incubated for 48 hrs by sulforhodamine B assay relative to control; conditions: NCI-H23, 48 h, read-out: Activity
[19] = system: HOP-92; test: Growth inhibition of human HOP92 cells assessed as cell growth at 10^-7 M incubated for 48 hrs by sulforhodamine B assay relative to control; conditions: HOP-92, 48 h, read-out: Activity
[20] = system: NCI-H23; test: Cytotoxicity against human NCI-H23 cells after 48 hrs by SRB assay; conditions: NCI-H23, 48 h
[21] = system: MOLT-4; test: Cytotoxicity against human MOLT4 cells after 48 hrs by SRB assay; conditions: MOLT-4, 48 h; for CC50: read-out: LC50 (the source's name)
[22] = system: SF-295; test: Growth inhibition of human SF295 cells assessed as cell growth at 10^-8 M incubated for 48 hrs by sulforhodamine B assay relative to control; conditions: SF-295, 48 h, read-out: Activity
[23] = system: IGROV-1; test: Growth inhibition of human IGROV1 cells assessed as cell growth at 10^-7 M incubated for 48 hrs by sulforhodamine B assay relative to control; conditions: IGROV-1, 48 h, read-out: Activity
[24] = system: A549; test: Growth inhibition of human A549/ATCC cells assessed as cell growth at 10^-6 M incubated for 48 hrs by sulforhodamine B assay relative to control; conditions: A549, 48 h, read-out: Activity
[25] = system: RXF 393; test: Cytotoxicity against human RXF393 cells after 48 hrs by SRB assay; conditions: RXF 393, 48 h; for CC50: read-out: pLC50 (the source's name) (converted)
[26] = system: RPMI-8226; test: Growth inhibition of human RPMI8226 cells assessed as cell growth at 10^-6 M incubated for 48 hrs by sulforhodamine B assay relative to control; conditions: RPMI-8226, 48 h, read-out: Activity
[27] = system: T47D; test: Growth inhibition of human T47D cells assessed as cell growth at 10^-8 M incubated for 48 hrs by sulforhodamine B assay relative to control; conditions: read-out: Activity
[28] = system: U-251; test: Growth inhibition of human U251 cells assessed as cell growth at 10^-4 M incubated for 48 hrs by sulforhodamine B assay relative to control; conditions: U-251, 48 h, read-out: Activity
[29] = system: SK-MEL-2; test: Growth inhibition of human SK-MEL-2 cells assessed as cell growth at 10^-8 M incubated for 48 hrs by sulforhodamine B assay relative to control; conditions: SK-MEL-2, 48 h, read-out: Activity
[30] = system: EKVX; test: Growth inhibition of human EKVX cells assessed as cell growth at 10^-7 M incubated for 48 hrs by sulforhodamine B assay relative to control; conditions: read-out: Activity
[31] = system: HCT-15; test: Growth inhibition of human HCT15 cells assessed as cell growth at 10^-8 M incubated for 48 hrs by sulforhodamine B assay relative to control; conditions: HCT-15, 48 h, read-out: Activity
[32] = system: HCT-15; test: Growth inhibition of human HCT15 cells assessed as cell growth at 10^-5 M incubated for 48 hrs by sulforhodamine B assay relative to control; conditions: HCT-15, 48 h, read-out: Activity
[33] = read-out: LC50 (the source's name)

## C#C[C@@]1(O)[C@@H](CO)O[C@@H](n2ccc3c(N)ncnc32)[C@@H]1O
[1]
  growth at 1 µM: 38%
[2]; read-out: TGI
  TGI: 7.28 µM
[2]; read-out: pGI50 (converted)
  GI50: 794 nM
[2]
  CC50: > 100 µM
[2]; read-out: pTGI (converted)
  TGI: 7.24 µM
[3]
  growth at 10 µM: -9%
[4]
  growth at 1 µM: 46%
[5]
  CC50: > 100 µM
[5]; read-out: TGI
  TGI: 6.32 µM
[5]; read-out: pGI50 (converted)
  GI50: 1380 nM
[5]; read-out: pTGI (converted)
  TGI: 6.31 µM
[6]
  growth at 0.01 µM: 103%
[7]
  growth at 1 µM: 67%
[8]
  growth at 1 µM: 94%
[9]
  growth at 0.1 µM: 92%
[10]
  growth at 100 µM: -61%
[11]
  growth at 100 µM: -100%
[12]; read-out: TGI
  TGI: 3.84 µM
[12]; read-out: pGI50 (converted)
  GI50: 1820 nM
[12]; read-out: pTGI (converted)
  TGI: 3.8 µM
[13]
  growth at 100 µM: -64%
[14]
  growth at 0.01 µM: 83%
[15]; read-out: TGI
  TGI: 3.33 µM
[15]; read-out: pGI50 (converted)
  GI50: 1290 nM
[15]
  CC50: 8.51 µM
[15]; read-out: pTGI (converted)
  TGI: 3.31 µM
[16]
  growth at 1 µM: 75%
[17]
  growth at 0.01 µM: 98%
[18]
  growth at 1 µM: 57%
[19]
  growth at 0.1 µM: 104%
[20]; [33]
  CC50: > 100 µM
[20]; read-out: TGI
  TGI: 4.32 µM
[20]; read-out: pGI50 (converted)
  GI50: 1170 nM
[20]; read-out: pTGI (converted)
  TGI: 4.37 µM
[21]
  CC50: > 100 µM
[21]; read-out: TGI
  TGI: > 100 µM
[21]; read-out: pGI50 (converted)
  GI50: 617 nM
[21]; read-out: pTGI (converted)
  TGI: > 100 µM
[22]
  growth at 0.01 µM: 89%
[23]
  growth at 0.1 µM: 100%
[24]
  growth at 1 µM: 56%
[25]; read-out: TGI
  TGI: 4.6 µM
[25]; read-out: pGI50 (converted)
  GI50: 1910 nM
[25]
  CC50: 12.9 µM
[25]; read-out: pTGI (converted)
  TGI: 4.57 µM
[26]
  growth at 1 µM: 44%
[27]
  growth at 0.01 µM: 92%
[28]
  growth at 100 µM: -30%
[29]
  growth at 0.01 µM: 88%
[30]
  growth at 0.1 µM: 92%
[31]
  growth at 0.01 µM: 92%
[32]
  growth at 10 µM: -24%

## C#C[C@@]1(O)[C@@H](CO)O[C@@H](n2cc(Cl)c3c(N)ncnc32)[C@@H]1O
[1]
  growth at 1 µM: 2%
[2]; read-out: GI50
  GI50: 50.6 to 54.6 nM
[2]; read-out: TGI
  TGI: 0.777 µM
[2]
  CC50: > 100 µM
[2]; read-out: pTGI (converted)
  TGI: 0.776 µM
[4]
  growth at 1 µM: 7%
[5]; read-out: GI50
  GI50: 83.5 to 146 nM
[5]
  CC50: > 100 µM
[5]; read-out: TGI
  TGI: 0.268 to 0.481 µM
[6]
  growth at 0.01 µM: 96 to 100%
[8]
  growth at 1 µM: 32 to 43%
[9]
  growth at 0.1 µM: 4 to 5%
[12]; read-out: GI50
  GI50: 258 to 310 nM
[12]; [33]
  CC50: 1800 to 3210 nM
[12]; read-out: TGI
  TGI: 0.574 to 0.888 µM
[13]
  growth at 100 µM: 1%
[14]
  growth at 0.01 µM: 67 to 75%
[15]; read-out: GI50
  GI50: 180 to 243 nM
[15]; read-out: TGI
  TGI: 0.451 to 0.751 µM
[15]
  CC50: 2.09 µM
[16]
  growth at 1 µM: 5 to 13%
[17]
  growth at 0.01 µM: 85 to 88%
[19]
  growth at 0.1 µM: 90%
[20]; read-out: GI50
  GI50: 173 to 213 nM
[20]; read-out: TGI
  TGI: 0.716 to 1.28 µM
[20]; read-out: pLC50 (the source's name) (converted)
  CC50: > 100 µM
[21]; read-out: GI50
  GI50: 161 to 181 nM
[21]
  CC50: > 100 µM
[21]; read-out: TGI
  TGI: 6.97 to 100 µM
[22]
  growth at 0.01 µM: 82 to 92%
[23]
  growth at 0.1 µM: 57 to 65%
[25]; read-out: GI50
  GI50: 299 to 485 nM
[25]; read-out: TGI
  TGI: 0.813 to 2.01 µM
[25]
  CC50: > 100 µM
[27]
  growth at 0.01 µM: 71 to 84%
[28]
  growth at 100 µM: 1%
[29]
  growth at 0.01 µM: 86 to 95%
[30]
  growth at 0.1 µM: 78 to 79%
[31]
  growth at 0.01 µM: 78 to 80%
[32]
  growth at 10 µM: 1%

From ChEMBL document CHEMBL4270599, “Synthesis of a 3'-C-ethynyl-β-d-ribofuranose purine nucleoside library: Discovery of C7-deazapurine analogs as potent antiproliferative nucleosides” (Eur J Med Chem, 2018)
